The values below come from PMC12289521, “Ligand binding to a Ni–Fe cluster orchestrates conformational changes of the CO-dehydrogenase–acetyl-CoA synthase complex” (Nature Catalysis, 2025).

Broadly, the Kd is the free concentration of one partner at which half of the binding sites on the other are occupied at equilibrium, for simple one-to-one binding. High values mean weaker binding, low ones tighter binding.

Assay [1] deals with T1, acetyl-CoA synthase (ACS) (Carboxydothermus hydrogenoformans, UniProt Q3ACS4).
T1 construct: gene acsB; CODH–ACS complex, heterologously expressed in E. coli; with CO-dehydrogenase (CODH)
T1 sequence (Q3ACS4 1-732): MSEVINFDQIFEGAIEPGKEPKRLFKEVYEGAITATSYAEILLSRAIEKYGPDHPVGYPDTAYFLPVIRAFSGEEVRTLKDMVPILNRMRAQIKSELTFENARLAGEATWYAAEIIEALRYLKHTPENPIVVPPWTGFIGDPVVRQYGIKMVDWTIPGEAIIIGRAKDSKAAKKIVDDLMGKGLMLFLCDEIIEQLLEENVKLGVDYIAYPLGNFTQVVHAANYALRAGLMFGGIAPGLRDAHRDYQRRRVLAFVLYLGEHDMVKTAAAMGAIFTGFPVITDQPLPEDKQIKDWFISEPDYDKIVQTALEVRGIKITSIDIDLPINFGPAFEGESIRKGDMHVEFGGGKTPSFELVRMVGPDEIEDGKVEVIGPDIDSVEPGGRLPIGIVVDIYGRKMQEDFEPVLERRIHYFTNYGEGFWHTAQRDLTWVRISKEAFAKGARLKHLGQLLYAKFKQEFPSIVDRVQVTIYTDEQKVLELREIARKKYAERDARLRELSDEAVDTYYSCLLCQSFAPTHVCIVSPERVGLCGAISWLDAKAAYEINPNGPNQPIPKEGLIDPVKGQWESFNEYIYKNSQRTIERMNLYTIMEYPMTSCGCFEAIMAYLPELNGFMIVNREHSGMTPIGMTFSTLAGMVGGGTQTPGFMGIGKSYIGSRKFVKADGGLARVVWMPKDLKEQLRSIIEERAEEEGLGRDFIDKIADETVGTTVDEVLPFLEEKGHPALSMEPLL
Put plainly: ITC of methyl transfer to cluster A (two-substrate-two-product fit). In kind it is binding.

Assay [2] deals with T1, acetyl-CoA synthase (ACS). As to the kind of experiment: ITC of CODH–ACS complex with […] Ti(III)–EDTA, […] °C. Type of assay: binding.

Consider methyl cobinamide, for which, in assay [1], the “ITC of methyl transfer to cluster A (two-substrate-two-product fit)” value is given as 341. Regarding `CC(C)(COP(=O)(O)OP(=O)(O)OC[C@H]1O[C@@H](n2cnc3c(N)ncnc32)[C@H](O)[C@@H]1OP(=O)(O)O)[C@@H](O)C(=O)NCCC(=O)NCCS` [CoA], in assay [2], the Kd was less than 88 µM.
